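Grown in 96-well plates, cells were treated for 48 hours with each compound at five concentrations. Insufficient inhibition: endpoint recorded as highest concentration tested. TGI is the concentration that stops growth completely.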
Legend:
Test in all cases: growth of human tumour cells (NCI), 48 h
UACC-62 melanoma = tested on: UACC-62 melanoma
CAKI-1 renal = tested on: CAKI-1 renal
NCI-H460 lung = tested on: NCI-H460 lung
A549 NSCLC = tested on: A549 NSCLC
ACHN renal = tested on: ACHN renal
LXFL 529 NSCLC = tested on: LXFL 529 NSCLC
SK-MEL-5 melanoma = tested on: SK-MEL-5 melanoma
M19-MEL melanoma = tested on: M19-MEL melanoma
HOP-18 NSCLC = tested on: HOP-18 NSCLC
SNB-75 CNS = tested on: SNB-75 CNS
HS 578T breast = tested on: HS 578T breast
PC-3 prostate = tested on: PC-3 prostate

Structure (SMILES)	TGI (UACC-62 melanoma)	TGI (CAKI-1 renal)	TGI (NCI-H460 lung)	TGI (A549 NSCLC)	TGI (ACHN renal)	TGI (LXFL 529 NSCLC)	TGI (SK-MEL-5 melanoma)	TGI (M19-MEL melanoma)	TGI (HOP-18 NSCLC)	TGI (SNB-75 CNS)	TGI (HS 578T breast)	TGI (PC-3 prostate)
S=c1sc2c(Cl)ncnc2n1-c1ccccc1	21.4 µM	13.8 µM	32.6 µM	67.8 µM	30 µM	24.9 µM	29.7 µM	13.1 µM	39.5 µM	27.4 µM		
O=C(Nc1cccc2ccccc12)Oc1ccccc1C1CCCCC1	30.5 µM		33 µM	44.1 µM		38.9 µM	28.8 µM	43.4 µM	33.2 µM	29.8 µM		
O=C(CSc1nnc(-c2ccc(N=Cc3ccc(Cl)cc3)cc2)o1)Nc1ccccc1Cl	> 100 µM		> 100 µM	> 100 µM	> 100 µM	> 100 µM	> 100 µM	> 100 µM	> 100 µM	> 100 µM		
O=C(O)CCCl	4740 µM	> 5000 µM	> 5000 µM	> 5000 µM	> 5000 µM	> 5000 µM	> 5000 µM	> 5000 µM	> 5000 µM	> 5000 µM		
O=c1cc(CNC2CCCC2)[nH]c(=O)[nH]1	> 100 µM	> 100 µM	> 100 µM	> 100 µM	> 100 µM		> 100 µM			> 100 µM	> 100 µM	> 100 µM
O=C1c2c(F)c(F)c(F)c(F)c2SC2=NCCN12	19.2 µM	6.67 µM	17.5 µM	30.1 µM	21.1 µM		28.4 µM			29.9 µM	46.4 µM	27.2 µM
O=C1C=CC2CCC1C2 (stereo not drawn)	> 100 µM	> 100 µM	> 100 µM	> 100 µM	> 100 µM		> 100 µM			> 100 µM	80.4 µM	> 100 µM
C[N+]1(C)CCCC1C(=O)[O-] (stereo not drawn)	> 100 µM		> 100 µM	> 100 µM	> 100 µM	> 100 µM		> 100 µM	> 100 µM	> 100 µM		
Nc1nc(Cl)cc(NCC2(O)CC(CO)C2)n1 (stereo not drawn)	> 100 µM	> 100 µM	> 100 µM	> 100 µM	> 100 µM		> 100 µM			> 100 µM	> 100 µM	> 100 µM
Cc1ccc(S(=O)(=O)c2scc(-c3ccccc3)c2C)cc1	> 100 µM	> 100 µM	> 100 µM	> 100 µM	> 100 µM		> 100 µM			> 100 µM	> 100 µM	> 100 µM
COC(=O)[C@H](Cc1ccccc1)NC(=O)c1ccc(CNC(=O)/C=C/c2ccc(-c3ccccc3)cc2)cc1	> 100 µM	> 100 µM	> 100 µM	> 100 µM	> 100 µM		> 100 µM			48.3 µM	54.5 µM	> 100 µM
COc1ccc(-c2nc(N)c(C#N)c3c2CCS(=O)(=O)c2ccc(C)cc2-3)cc1OC	51.7 µM	> 100 µM	> 100 µM	> 100 µM	> 100 µM		> 100 µM			69.7 µM	77.6 µM	> 100 µM
COC(=O)C(=O)C(C(=O)Nc1cccc(C)c1C)C1Sc2ccccc2NC1=O (stereo not drawn)	> 25 µM	> 25 µM	> 25 µM	> 25 µM	> 25 µM	> 25 µM	> 25 µM	> 25 µM	> 25 µM	> 25 µM		
c1ccc(C2=NC3(CCCCC3)N(c3nc4ccccc4s3)N2)nc1	> 100 µM	91.5 µM	32 µM	> 100 µM	> 100 µM		40.6 µM			76.6 µM	> 100 µM	46.9 µM
COC(=O)N1CC2(CO)C3CC=C(C(=O)Nc4ccccc4Br)C2C1C3Br (stereo not drawn)	> 50 µM	> 50 µM	> 50 µM	> 50 µM	> 50 µM		> 50 µM			> 50 µM	> 50 µM	> 50 µM
C=C1C(=O)OC2/C=C(\C)C(OC(C)=O)C3OC3C(C)(O)CC(OC(=O)/C(C)=C/C)C12 (stereo not drawn)	23.5 µM	5.94 µM	29.1 µM	42.6 µM	31.7 µM	10.1 µM	27.4 µM	22.3 µM	23.5 µM	97.4 µM		
O=C1C(N2CCCC2)=CC(=O)c2c(O)c(N3CCCC3)c(Cl)c(O)c21	> 10 µM	> 10 µM	> 10 µM	> 10 µM	> 10 µM		> 10 µM			> 10 µM	> 10 µM	> 10 µM
Nc1nc2c(=O)c3ccccc3sc2s1	84 µM	91.6 µM	> 100 µM	> 100 µM	> 100 µM		> 100 µM			> 100 µM	> 100 µM	> 100 µM
O=c1c2ccccc2oc2nc3n(c(=O)c12)CCCS3	> 100 µM	> 100 µM	> 100 µM	> 100 µM	> 100 µM		> 100 µM			> 100 µM	> 100 µM	> 100 µM
CCOC(=O)c1cnc(-n2[nH]c(C)c(CCO)c2=O)[nH]c1=O	> 100 µM	> 100 µM	> 100 µM	> 100 µM	> 100 µM		> 100 µM			> 100 µM	> 100 µM	> 100 µM
CCOc1cc2c(cc1O)/C(=N\N)C[C@@H]1[C@@H]2CC[C@]2(C)[C@@H](O)CC[C@@H]12	41.9 µM	40.6 µM	> 33.6 µM	> 100 µM	> 100 µM		28 µM			> 25.8 µM	> 27 µM	> 80.1 µM
C=CCNC(=S)Nc1sc2c(c1C(=O)OCC)CC(C)CC2 (stereo not drawn)	46.7 µM	> 100 µM	47.7 µM	60.8 µM	53.6 µM		30.7 µM			64.7 µM	> 100 µM	50 µM
O=S(=O)(Oc1ccc2oc3ccccc3c2c1-c1c(OS(=O)(=O)C(F)(F)F)ccc2oc3ccccc3c12)C(F)(F)F	> 100 µM	> 100 µM	> 100 µM	> 100 µM	> 100 µM		> 100 µM			> 100 µM	> 100 µM	> 100 µM
O=C1c2ccccc2C(=O)N1n1c(Cc2ccccc2)n[nH]c1=O	> 100 µM	> 100 µM	> 100 µM	> 100 µM	> 100 µM		> 100 µM			> 100 µM	> 100 µM	> 100 µM

From PubChem BioAssay (NCI)
